# How the values were obtained:
# SpNatA = biological target: T1, SpNatA (Schizosaccharomyces pombe, UniProt O74985+Q9UTI3); test: […] acetyltransferase assay with and without IP6; assay type: biochemical; details: 2 μM IP6, 50 μM Ac-CoA, 50 μM SASE peptide, pH 7.0, room temperature
# T1 sequence (Q9UTI3 1-156): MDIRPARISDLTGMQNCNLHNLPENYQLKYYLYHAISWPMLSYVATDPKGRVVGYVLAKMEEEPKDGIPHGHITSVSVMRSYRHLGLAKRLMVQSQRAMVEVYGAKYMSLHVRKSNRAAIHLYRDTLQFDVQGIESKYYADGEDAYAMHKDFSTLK
# T1 sequence (O74985 1-729): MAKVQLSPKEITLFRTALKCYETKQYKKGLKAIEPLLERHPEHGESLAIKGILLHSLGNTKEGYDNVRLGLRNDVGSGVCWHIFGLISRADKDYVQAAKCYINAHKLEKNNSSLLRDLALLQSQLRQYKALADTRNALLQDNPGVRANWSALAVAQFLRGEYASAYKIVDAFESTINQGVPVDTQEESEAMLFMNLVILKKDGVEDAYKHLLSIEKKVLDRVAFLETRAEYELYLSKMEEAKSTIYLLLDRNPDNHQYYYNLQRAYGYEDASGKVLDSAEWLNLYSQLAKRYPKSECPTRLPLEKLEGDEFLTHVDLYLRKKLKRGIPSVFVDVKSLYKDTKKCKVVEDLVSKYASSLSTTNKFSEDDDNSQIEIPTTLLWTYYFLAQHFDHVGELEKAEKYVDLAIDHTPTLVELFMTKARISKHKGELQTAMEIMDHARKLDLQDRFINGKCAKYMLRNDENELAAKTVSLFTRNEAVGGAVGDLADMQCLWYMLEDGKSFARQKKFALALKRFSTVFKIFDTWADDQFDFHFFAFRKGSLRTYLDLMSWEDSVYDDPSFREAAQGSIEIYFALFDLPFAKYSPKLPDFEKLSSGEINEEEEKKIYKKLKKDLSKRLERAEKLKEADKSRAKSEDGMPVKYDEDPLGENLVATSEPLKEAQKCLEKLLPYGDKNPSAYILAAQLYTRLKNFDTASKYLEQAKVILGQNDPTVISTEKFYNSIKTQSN
# ternary SpNatC = biological target: T2, ternary SpNatC (Schizosaccharomyces pombe, UniProt O74311+Q9USY3); test: isothermal titration calorimetry; assay type: binding
# T2 sequence (O74311 1-150): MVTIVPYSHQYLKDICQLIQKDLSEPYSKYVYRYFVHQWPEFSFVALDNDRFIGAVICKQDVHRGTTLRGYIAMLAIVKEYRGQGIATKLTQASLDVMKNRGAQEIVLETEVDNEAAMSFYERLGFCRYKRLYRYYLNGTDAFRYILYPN
# T2 sequence (Q9USY3 31-708): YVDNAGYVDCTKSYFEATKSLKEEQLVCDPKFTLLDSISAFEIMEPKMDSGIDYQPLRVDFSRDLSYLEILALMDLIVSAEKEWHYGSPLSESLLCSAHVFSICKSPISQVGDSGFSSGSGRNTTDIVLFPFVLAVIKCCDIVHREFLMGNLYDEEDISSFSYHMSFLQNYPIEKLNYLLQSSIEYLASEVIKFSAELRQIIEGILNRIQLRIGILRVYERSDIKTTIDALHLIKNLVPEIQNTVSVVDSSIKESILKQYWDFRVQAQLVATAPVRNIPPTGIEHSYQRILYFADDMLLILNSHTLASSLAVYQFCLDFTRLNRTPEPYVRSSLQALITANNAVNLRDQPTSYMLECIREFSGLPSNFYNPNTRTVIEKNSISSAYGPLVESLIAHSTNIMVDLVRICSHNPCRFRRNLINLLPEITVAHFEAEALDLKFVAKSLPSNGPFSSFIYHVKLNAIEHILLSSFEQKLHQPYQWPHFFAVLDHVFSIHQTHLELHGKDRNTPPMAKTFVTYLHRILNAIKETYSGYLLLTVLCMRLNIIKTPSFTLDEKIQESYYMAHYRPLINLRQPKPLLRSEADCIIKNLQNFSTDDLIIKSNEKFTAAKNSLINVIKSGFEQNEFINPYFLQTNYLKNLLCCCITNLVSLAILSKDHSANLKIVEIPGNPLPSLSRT
# T2 sequence (O43080 4-72 partner limits assumed): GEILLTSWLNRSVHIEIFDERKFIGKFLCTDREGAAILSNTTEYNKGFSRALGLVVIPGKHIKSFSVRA
# hNatB = hNatB (Homo sapiens, UniProt P61599); test: […] acetyltransferase assay with and without IP6; assay type: biochemical; details: 2 μM IP6, 50 μM Ac-CoA, 50 μM MDVF peptide, pH 7.0, room temperature
# hNatB, sequence (P61599 1-163): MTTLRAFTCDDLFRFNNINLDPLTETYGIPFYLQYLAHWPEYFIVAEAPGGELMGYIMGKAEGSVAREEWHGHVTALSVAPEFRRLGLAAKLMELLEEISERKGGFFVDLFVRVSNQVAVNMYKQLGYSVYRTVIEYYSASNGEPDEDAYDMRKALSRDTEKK
# hNatB, sequence (Q14CX7 whole entry partner): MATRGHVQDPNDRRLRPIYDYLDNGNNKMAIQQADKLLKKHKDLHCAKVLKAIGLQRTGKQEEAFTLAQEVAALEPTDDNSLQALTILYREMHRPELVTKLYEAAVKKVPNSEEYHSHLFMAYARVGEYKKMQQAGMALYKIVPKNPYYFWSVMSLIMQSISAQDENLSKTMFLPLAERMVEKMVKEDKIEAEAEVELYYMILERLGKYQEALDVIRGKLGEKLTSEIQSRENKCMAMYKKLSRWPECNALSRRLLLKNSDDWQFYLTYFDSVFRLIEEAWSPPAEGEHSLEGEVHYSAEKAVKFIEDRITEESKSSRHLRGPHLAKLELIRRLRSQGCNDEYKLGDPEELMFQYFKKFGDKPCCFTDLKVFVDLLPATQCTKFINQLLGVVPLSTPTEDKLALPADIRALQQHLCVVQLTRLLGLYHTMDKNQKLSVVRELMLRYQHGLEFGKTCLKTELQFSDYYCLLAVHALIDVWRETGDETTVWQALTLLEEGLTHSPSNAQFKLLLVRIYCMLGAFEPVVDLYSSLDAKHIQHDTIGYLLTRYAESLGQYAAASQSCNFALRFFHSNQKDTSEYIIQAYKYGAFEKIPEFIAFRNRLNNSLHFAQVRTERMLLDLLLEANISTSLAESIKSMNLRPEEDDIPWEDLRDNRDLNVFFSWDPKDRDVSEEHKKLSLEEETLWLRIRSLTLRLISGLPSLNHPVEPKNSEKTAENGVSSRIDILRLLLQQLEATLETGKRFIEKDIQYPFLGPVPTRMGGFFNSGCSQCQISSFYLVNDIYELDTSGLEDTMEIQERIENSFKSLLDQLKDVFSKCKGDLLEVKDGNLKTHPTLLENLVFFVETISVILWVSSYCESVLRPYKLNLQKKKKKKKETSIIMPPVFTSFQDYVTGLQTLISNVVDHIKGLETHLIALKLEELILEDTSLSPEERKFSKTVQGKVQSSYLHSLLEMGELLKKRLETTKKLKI
smiles,measurement,setting,value
"O=P(O)(O)O[C@H]1[C@H](OP(=O)(O)O)[C@@H](OP(=O)(O)O)[C@H](OP(=O)(O)O)[C@@H](OP(=O)(O)O)[C@H]1OP(=O)(O)O [IP6, inositol hexaphosphate]",modest inhibition at 2 μM,SpNatA,"produced a relatively modest inhibitory effect, as it also did for SpNatA and hNatB"
same,Kd,ternary SpNatC,~0.225 µM
same,modest inhibition at 2 μM,hNatB,"produced a relatively modest inhibitory effect, as it also did for SpNatA and hNatB"
